Columns and labels:
[1] = molecular target: murine scavenger receptor protein type BI (mSR-BI) (murine)
[2] = molecular target: murine scavenger receptor protein type BI (mSR-BI) (murine); remark: listed apart in the source
[3] = system: SR-BI; assay: Immunoblot of SR-BI expression in tissues of estrogen-treated rats; assay type: in vivo, rat; conditions: 5 mg/kg subcutaneous for five consecutive days
Protocol: To determine the size of mSR-BI and its tissue distribution, a rabbit anti-mSR-BI polyclonal antibody was prepared by immunization of a 16 amino acid peptide (residues 495 to 509 from the predicted protein sequence of mSR-BI plus an additional N-terminal cysteine) coupled to keyhole limpet hemocyanin. This is referred to as anti-mSR-BI^495 antiserum. The antiserum was used for immunoblot analysis of cultured cells and murine tissues.
Post-nuclear cell extracts from ldlA and ldlA[mSR-BI] cells and membranes (post-nuclear 100,000×g pellets) from murine tissues were isolated, reduced, and separated by 6.5% SDS-polyacrylamide gel electrophoresis (50 μg protein/lane), transferred to nitrocellulose and probed with a primary anti-mSR-BI^495 antipeptide antibody (rabbit IgG fraction, 1:5000 dilution) and developed using a horseradish peroxidase labeled second antibody and ECL kit (5 min exposure, Amersham). Ponceau S staining was used as a control for gel loading and transfer.
Tissues of estrogen-treated rats were screened for expression of SR-BI as described above following treatment of rats with 17-α-ethylenyl estradiol (estrogen). The rats were treated for five consecutive days with subcutaneous injections of 5 mg/kg 17-α-ethylenyl estradiol in propylene glycol or with propylene glycol alone (sham-injected).

[4] = system: LDL receptor; assay: Immunoblot of LDL receptor expression in estrogen-treated rats; assay type: in vivo, rat; conditions: 5 mg/kg subcutaneous for five consecutive days, vs sham, liver
[5] = system: liver cells; assay: Uptake of lipid from fluorescently labeled HDL injected into estrogen-treated rats, liver; assay type: in vivo, rat; conditions: fluorescently labeled HDL injected into estrogen-treated vs sham-injected rats
[6] = system: adrenal tissues; assay: Uptake of lipid from fluorescently labeled HDL injected into estrogen-treated rats, adrenal; assay type: in vivo, rat; conditions: fluorescently labeled HDL injected into estrogen-treated vs sham-injected rats

| cell association of the lipid-labeled component of HDL (3H-cholesteryl oleate or DiI) [1] [%] | total cellular cholesterol (free and esterified) after incubation with unlabeled HDL (20 µg protein/ml, 5 hrs) [2] [% increase] | Substance | SR-BI expression in liver ([3]; vs sham, liver) | SR-BI levels in tissues showing trace signal ([3]; vs sham, lung, testes and skin) | SR-BI expression in rat adrenal membranes ([3]; vs sham-injected controls, adrenal membranes) | LDL receptor expression [4] | Uptake of HDL-derived lipids into liver cells [5] | Uptake of lipid into adrenal tissues [6] |
| --- | --- | --- | --- | --- | --- | --- | --- | --- |
| 18 | 20 | high density lipoprotein (HDL) prepared from human plasma (from UniProt P02647) | – | – | – | – | – | – |
| – | – | 17-α-ethylenyl estradiol [estrogen] | dramatically downregulated | no change | upregulation | tremendous upregulation | no similar uptake | dramatically increased |
